{"source": "patent US6852756B1", "about": "“Use of pleuromutilin derivatives for transdermal treatment of bacterial diseases” (Novartis Animal Health US Inc., priority 1999, dated 2005)", "key": {"[1]": {"experiment": "Additional experiments: topical application as a spot on, tissue amounts, cattle", "format": "in vivo"}, "[2]": {"experiment": "Assessment of the systemic absorption of valnemulin after cutaneous administration (footbath / foot spray) in cattle; HPLC of blood and milk", "format": "in vivo", "details": "lactating cows, footbath Day 1 and Day 3, foot spray Day 5, 10% valnemulin solution", "text": "(§1) 2. Assessment of the Systemic Absorption of Valnemulin-Type of Compounds After Cutaneous Administration in Cattle Type of administration: Footbath or directly as spray Test Protocol: Four lactating adult cows with clinical signs of Bovine Digital Dermatitis are recruited to the study. Blood and milk samples are taken before, and at intervals after application of a water/ethanol solution containing 10% valnemulin either as a footbath, or directly by spraying the feet. Test Formulation: Water/ethanol solution containing 10% valnemulin [table] Footbath solutions are prepared fresh each treatment day. A calculated quantity of test product is added to an estimated volume of water, which is placed in the footbath beforehand. The cows are driven individually into the footbath and made to stand there with their feet covered by footbath solution for 2 minutes. Foot spraying involves the use of a hand operated spraying device into which 100 ml of the test product are placed. Said 100 ml are distributed between the feet of each cow and applied directly to the lower leg areas and around and underneath each foot. Valnemulin content of samples is determined by a validated High Performance Liquid Chromatography (HPLC) method. Day 1; a.m. milking samples (50 ml/sample) are taken before the first treatment, thus serving as control measurements. […]"}, "[3]": {"test_system": "Bovine Digital Dermatitis", "experiment": "Footbath / foot spray treatment of lactating cows with clinical signs of Bovine Digital Dermatitis (footrot)", "format": "in vivo, cattle", "details": "four lactating cows; footbath Day 1 and Day 3, foot spray Day 5; 10% valnemulin solution; after one week", "method": "as §1, with “Disease: Footrot” for “2. Assessment of the Systemic Absorption of Valnemulin-Type of Compounds After Cutaneous Administration in Cattle”, “feet.” for “feet. Test Formulation: Water/ethanol solution containing 10% valnemulin [table]”, “foot.” for “foot. Valnemulin content of samples is determined by a validated High Performance Liquid Chromatography (HPLC) method. Day 1; a.m. milking samples (50 ml/sample) are taken before the first treatment, thus serving as control measurements.”"}, "[4]": {"experiment": "Preliminary test: transdermal study in pigs (tissue, bile and plasma concentrations after cutaneous administration)", "format": "in vivo", "details": "2 × 25 mg/kg of body weight", "method": "1. Preliminary Test: Transdermal Study in Pigs [table] The test solution is administered cutaneously to the skin of the animal and the […], lung, skin, bile and plasma concentrations are determined. For determining the concentrations (μg/ml of plasma or g of tissue) a calibration curve of valnemulin in plasma is used. These investigations are not meant to determine the exact values but to provide only a yes or no answer."}, "[5]": {"experiment": "Additional experiments: topical application as a spot on, tissue amounts, pigs", "format": "in vivo"}, "[6]": {"details": "Animal No 1, water solution containing 10% valnemulin"}, "[7]": {"details": "Animal No 2, 40% ethanol/water solution containing 10% valnemulin"}}, "data": [{"smiles": "C=C[C@]1(C)C[C@@H](OC(=O)CSC(C)(C)CNC(=O)[C@H](N)C(C)C)[C@]2(C)[C@H](C)CC[C@]3(CCC(=O)[C@H]32)[C@@H](C)[C@@H]1O", "note": "[valnemulin]", "values": [{"measurement": "amounts of active ingredient found in tissues (brain, liver, muscle, spleen, lung)", "setting": "[1]", "result": "fairly high amounts"}, {"measurement": "valnemulin concentrations in blood samples", "setting": "[2]", "result": "found in most milk and blood samples"}, {"measurement": "valnemulin concentrations in milk samples", "setting": "[2]", "result": "found in most milk and blood samples"}, {"measurement": "symptoms of footrot after treatment", "setting": "[3]", "result": "none of the treated cows shows any symptoms of footrot"}, {"measurement": "bile concentration", "setting": "[4]; [6]", "result": "0.155 μg/ml of plasma or g of tissue"}, {"measurement": "liver concentration", "setting": "[4]; [6]", "result": "0.175 μg/ml of plasma or g of tissue"}, {"measurement": "lung concentration", "setting": "[4]; [6]", "result": "0.916 μg/ml of plasma or g of tissue"}, {"measurement": "plasma concentration 3 hours after 1st application", "setting": "[4]; [6]", "result": "<limit of detection"}, {"measurement": "plasma concentration 6 hours after 1st application", "setting": "[4]; [6]", "result": "<limit of detection"}, {"measurement": "skin concentration", "setting": "[4]; [6]", "result": "39.056 μg/ml of plasma or g of tissue"}, {"measurement": "bile concentration", "setting": "[4]; [7]", "result": "<limit of detection"}, {"measurement": "liver concentration", "setting": "[4]; [7]", "result": "0.132 μg/ml of plasma or g of tissue"}, {"measurement": "lung concentration", "setting": "[4]; [7]", "result": "0.353 μg/ml of plasma or g of tissue"}, {"measurement": "plasma concentration 3 hours after 1st application", "setting": "[4]; [7]", "result": "<limit of detection"}, {"measurement": "plasma concentration 6 hours after 1st application", "setting": "[4]; [7]", "result": "0.07 μg/ml of plasma or g of tissue"}, {"measurement": "skin concentration", "setting": "[4]; [7]", "result": "6.965 μg/ml of plasma or g of tissue"}, {"measurement": "amounts of active ingredient found in tissues (brain, liver, muscle, spleen, lung)", "setting": "[5]", "result": "fairly high amounts"}]}]}
